The numbers were not newly measured in patent US11918665B2, “Method for dyeing keratinous material, comprising the use of an organosilicon compound, a colored effect pigment and a sealing reagent I” (Henkel AG & Co. KGaA, priority 2019, dated 2024), which cites them from elsewhere.

For the data set the following is noted: 25° C.

Take `O=S(=O)([O-])c1ccc(N=Nc2c(O)ccc3ccccc23)cc1.[Na+]` [Acid Orange 7, sodium salt of 4-[(2-hydroxy-1-naphthyl)azo]benzene sulphonate]: the solubility in water entry is “more than 7 g/L”.
`Nc1cc(S(=O)(=O)[O-])cc2cc(S(=O)(=O)[O-])c(N=Nc3ccccc3)c(O)c12.[Na+].[Na+]` [Acid Red 33, disodium salt of 5-amino-4-hydroxy-3-(phenylazo)-naphthalene-2,7-disulphonate]: the solubility in water is 2500 µg/mL.
For `O=C([O-])c1c(Cl)c(Cl)c(Cl)c(Cl)c1-c1c2c(Br)cc(=O)c(Br)c-2oc2c(Br)c(O)cc(Br)c12.O=C([O-])c1c(Cl)c(Cl)c(Cl)c(Cl)c1-c1c2c(Br)cc(=O)c(Br)c-2oc2c(Br)c(O)cc(Br)c12.[Na+].[Na+]` [Acid Red 92, disodium salt of 3,4,5,6-tetrachloro-2-(1,4,5,8-tetrabromo-6-hydroxy-3-oxoxanthen-9-yl)benzoic acid], the solubility in water entry is given as “greater than 10 g/L”.
`O=C([O-])C1=NN(c2ccc(S(=O)(=O)[O-])cc2)C(=O)C1N=Nc1ccc(S(=O)(=O)[O-])cc1.[Na+].[Na+].[Na+]` (stereo not shown) [Acid Yellow 23, trisodium salt of 4,5-dihydro-5-oxo-1-(4-sulfophenyl)-4-((4-sulfophenyl)azo)-1H-pyrazole-3-carboxylic acid]: the “solubility in water (in words)” value is recorded as “highly soluble in water”.
